Bridge positions count the residues as written; N and C are the ends. Peptide text beside a SMILES is read from it.
How the values were obtained:
hERG = experiment: TEVC electrophysiology, hERG in Xenopus oocytes; assay type: cell-based
Text: (§1) For the expression of the voltage gated potassium channels (rKV1.1, rKV1.2, hKV1.3, rKV1.4, rKV1.5, rKV1.6, Shaker IR, rKV2.1, hKV3.1, rKV4.2, hERG, KV10.1) and the voltage gated sodium channels (rNaV1.1, rNaV1.4, hNaV1.5, mNaV1.6 and DmNav1) in Xenopus oocytes, the linearized plasmids were transcribed using the T7 or SP6 mMESSAGE-mMACHINE transcription kit (Ambion, Waltham, MA, USA). The harvesting of stage V–VI oocytes from anaesthetized female X. laevis frog has been previously described. Oocytes were injected with 30–50 nL of cRNA at a concentration of 1 ng/nL using a micro-injector (Drummond Scientfic, Broomall, PA, USA). The oocytes were incubated in a solution containing (in mM): NaCl, 96; KCl, 2; CaCl2, 1.8; MgCl2, 2 and HEPES, 5 (pH 7.4), supplemented with 50 mg/L gentamycin sulfate.
(§2) Two-electrode voltage-clamp recordings were performed at room temperature (18–22 °C) using a Geneclamp 500 amplifier (Molecular Devices, Silicon Valley, CA, USA) controlled by a pClamp data acquisition system (Axon Instruments, Union City, CA, USA). Whole cell currents from oocytes were recorded 1–10 days after injection. Bath solution composition was ND96 (in mM): NaCl, 96; KCl, 2; CaCl2, 1.8; MgCl2, 2 and HEPES, 5 (pH 7.4) (in mM): NaCl, 2; KCl, 96; CaCl2, 1.8; MgCl2, 2 and HEPES, 5 (pH 7.4). […]

Nav1.5 (hNaV1.5) = experiment: TEVC electrophysiology, Nav1.5 in Xenopus oocytes; assay type: cell-based, human; details: 1 μM, two-electrode voltage-clamp, 100 ms depolarization to 0 mV from −90 mV, number of cells ≥ 3
Text: as §1, §2

Kv10.1 = experiment: TEVC electrophysiology, Kv10.1 in Xenopus oocytes; assay type: cell-based; details: 3 μM, native toxin, two-electrode voltage-clamp, ND96 pH 7.4, 18–22 °C, 1 s depolarization to 0 mV from −90 mV, n ≥ 3
Text: as §1, §2

Kv channels = experiment: TEVC electrophysiology, Kv channel panel in Xenopus oocytes; assay type: cell-based; details: discussion, Kv channels overall
Text: as §1, §2

Shaker IR = experiment: TEVC electrophysiology, Shaker IR in Xenopus oocytes; assay type: cell-based; details: 3 μM, native toxin, two-electrode voltage-clamp, ND96 pH 7.4, 18–22 °C, 250 ms depolarizations to 0 mV from −90 mV, n ≥ 3
Text: as §1, §2

Kv1.2 (rKV1.2) = experiment: TEVC electrophysiology, Kv1.2 in Xenopus oocytes; assay type: cell-based, rat
Text: as §1, §2

Nav channels = experiment: TEVC electrophysiology, Nav channel panel in Xenopus oocytes; assay type: cell-based; details: discussion; tested at 1 μM
Text: as §1, §2

Kv4.2 (rKV4.2) = experiment: TEVC electrophysiology, Kv4.2 in Xenopus oocytes; assay type: cell-based, rat
Text: as §1, §2

Nav1.6 (mNaV1.6) = experiment: TEVC electrophysiology, Nav1.6 in Xenopus oocytes; assay type: cell-based, mouse; details: 1 μM, two-electrode voltage-clamp, 100 ms depolarization to 0 mV from −90 mV, number of cells ≥ 3
Text: as §1, §2

Nav1.1 (rNaV1.1) = experiment: TEVC electrophysiology, Nav1.1 in Xenopus oocytes; assay type: cell-based, rat; details: 1 μM, two-electrode voltage-clamp, 100 ms depolarization to 0 mV from −90 mV, number of cells ≥ 3
Text: as §1, §2

DmNav1 = experiment: TEVC electrophysiology, DmNav1 in Xenopus oocytes; assay type: cell-based, insect; details: 1 μM, two-electrode voltage-clamp, 100 ms depolarization to 0 mV from −90 mV, number of cells ≥ 3
Text: as §1, §2

Kv1.3 (hKV1.3) = molecular target: T1, Kv1.3 (hKV1.3) (Homo sapiens, UniProt P22001); experiment: TEVC electrophysiology, Kv1.3 in Xenopus oocytes; assay type: cell-based
T1 construct: expressed in transfected cells; host or cells: Xenopus laevis oocytes injected with cRNA
Text: as §1
Two-electrode voltage-clamp recordings were performed at room temperature (18–22 °C) using a Geneclamp 500 amplifier (Molecular Devices, Silicon Valley, CA, USA) controlled by a pClamp data acquisition system (Axon Instruments, Union City, CA, USA). Whole cell currents from oocytes were recorded 1–10 days after injection. Bath solution composition was ND96 (in mM): NaCl, 96; KCl, 2; CaCl2, 1.8; MgCl2, 2 and HEPES, 5 (pH 7.4) (in mM): NaCl, 2; KCl, 96; CaCl2, 1.8; MgCl2, 2 and HEPES, 5 (pH 7.4). Voltage and current electrodes were filled with KCl 3 M. Resistances of both electrodes were kept between […]. The elicited currents were sampled at 1 kHz and filtered at 0.5 kHz (for potassium currents) or sampled at 20 kHz and filtered at 2 kHz (for sodium currents) using a four-pole low-pass Bessel filter. Leak subtraction was performed using a -P/4 protocol.
The KV1.1–KV1.6, KV2.1, KV3.1 and KV4.2 and Shaker IR currents were evoked by 250 ms depolarizations to 0 mV followed by a 250 ms pulse to −50 mV, from a holding potential of −90 mV. Current traces of hERG channels were elicited by applying a pulse from −90 mV to +40 mV for 2.5 s followed by a step to −120 mV for 2.5 s. The Kv 10.1 currents were evoked by 1 s depolarization to 0 mV, from a holding potential of −90 mV. Sodium current traces were evoked, from a holding potential of −90 mV, by 100 ms depolarization to 0 mV. In order to investigate the current-voltage relationship, current traces were evoked by 10 mV depolarization steps from a holding potential of −90 mV.
To assess the concentration-response relationship of Ts11 on Kv1.3, data were fitted with the Hill equation: y = 100/[1 + (IC50/[toxin])^h], where y is the amplitude of the toxin-induced effect, IC50 is the toxin concentration at half maximal efficacy, [toxin] is the toxin concentration and h is the Hill coefficient (Hill coefficient: 0.8). Current-voltage relationship was determined by 100 ms step depolarization between −90 and +70 mV, using 10 mV increments. All data represent at least 3 independent experiments (n = 3) and are presented as mean ± standard error.

Nav1.4 (rNaV1.4) = experiment: TEVC electrophysiology, Nav1.4 in Xenopus oocytes; assay type: cell-based, rat; details: 1 μM, two-electrode voltage-clamp, 100 ms depolarization to 0 mV from −90 mV, number of cells ≥ 3
Text: as §1, §2

[1] = 3 μM, native toxin, two-electrode voltage-clamp, Xenopus oocytes, ND96 pH 7.4, 18–22 °C, 250 ms depolarizations to 0 mV from −90 mV, n ≥ 3
[2] = 5 μM, compared with 3 μM, data not shown

T1 sequence (P22001 whole entry): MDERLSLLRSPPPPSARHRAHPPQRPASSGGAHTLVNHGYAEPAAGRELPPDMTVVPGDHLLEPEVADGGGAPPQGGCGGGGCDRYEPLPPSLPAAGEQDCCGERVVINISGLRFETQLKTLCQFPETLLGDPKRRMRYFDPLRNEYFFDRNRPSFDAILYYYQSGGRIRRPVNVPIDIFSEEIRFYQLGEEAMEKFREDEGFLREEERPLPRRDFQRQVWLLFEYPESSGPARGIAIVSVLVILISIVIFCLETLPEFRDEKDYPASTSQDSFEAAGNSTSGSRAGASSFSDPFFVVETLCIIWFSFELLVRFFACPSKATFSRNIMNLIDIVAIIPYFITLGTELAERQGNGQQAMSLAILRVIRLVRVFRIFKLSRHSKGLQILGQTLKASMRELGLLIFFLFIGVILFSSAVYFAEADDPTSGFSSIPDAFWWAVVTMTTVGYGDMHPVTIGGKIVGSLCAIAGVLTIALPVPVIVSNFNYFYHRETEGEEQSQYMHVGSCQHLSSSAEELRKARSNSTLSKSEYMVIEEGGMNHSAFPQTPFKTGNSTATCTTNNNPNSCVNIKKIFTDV

CC(C)C[C@@H]1NC(=O)CNC(=O)[C@@H](NC(=O)[C@H](CCCCN)NC(=O)[C@@H]2CCCN2C(=O)[C@@H](N)CCCCN)CSSC[C@@H]2NC(=O)[C@@H]3CSSC[C@@H]4NC(=O)[C@H](CCCCN)NC(=O)CNC(=O)[C@H](CO)NC(=O)[C@H](CO)NC(=O)[C@H](CSSC[C@H](NC(=O)[C@H](C)NC(=O)CNC(=O)[C@H](CC(N)=O)NC(=O)[C@H](C(C)C)NC4=O)C(=O)N[C@@H](CC(=O)O)C(=O)N[C@H](C(=O)N[C@@H](CO)C(=O)O)CSSC[C@H](NC1=O)C(=O)N[C@@H](CCCNC(=N)N)C(=O)N[C@@H](Cc1ccc(O)cc1)C(=O)N[C@@H](CCCNC(=N)N)C(=O)N3)NC(=O)CNC(=O)CNC(=O)[C@H](CO)NC2=O [Ts11] (H-KPKCGLCRYRCCSGGCSSGKCVNGACDCS-OH; disulfide 4-12, 7-28, 11-21, 16-26; N-terminus and C-terminus assumed)
blocking effect on hERG (hERG; 3 μM, native toxin, two-electrode voltage-clamp, Xenopus oocytes, pH 7.4, 18–22 °C, pulse −90 mV to +40 mV for 2.5 s, step to −120 mV for 2.5 s, n ≥ 3): 12% | increase in blockage at higher concentration, hERG (hERG; 10 μM, compared with 3 μM, data not shown): no significant increase in blockage | activity on Nav1.5 (Nav1.5 (hNaV1.5)): inactive | blocking effect on Kv10.1 (Kv10.1): 15% | effect on kinetics of Kv channel gating (Kv channels): without altering the kinetics of channel gating | potency as Kv channel blocker (in words) (Kv channels): not a potent blocker of Kv channels | blocking effect on Shaker IR (Shaker IR): 10% | blocking effect on Kv1.2 (Kv1.2 (rKV1.2); [1]): 25% | increase in blockage at higher concentration, Kv1.2 (Kv1.2 (rKV1.2); [2]): no significant increase in blockage | activity on Nav channels overall (in words) (Nav channels): does not target Nav channels | blocking effect on Kv4.2 (Kv4.2 (rKV4.2); [1]): 25% | increase in blockage at higher concentration, Kv4.2 (Kv4.2 (rKV4.2); [2]): no significant increase in blockage | activity on Nav1.6 (Nav1.6 (mNaV1.6)): inactive | activity on Nav1.1 (Nav1.1 (rNaV1.1)): inactive | activity on insect channel DmNav1 (DmNav1): inactive | blocking effect on Kv1.3 (Kv1.3 (hKV1.3); [1]): 27% | alteration of channel activation properties (Kv1.3) (Kv1.3 (hKV1.3); 5 μM, V1/2 with toxin vs control): No significant alteration of properties of channel activation | Hill coefficient, Kv1.3 (Kv1.3 (hKV1.3); concentration-response fit, Hill equation, n ≥ 3): 0.8 | IC50 (Kv1.3 (hKV1.3); concentration-response, Hill equation fit, two-electrode voltage-clamp, Xenopus oocytes, pH 7.4, 18–22 °C, mean ± standard error, n ≥ 3, read-out: IC50, inhibition of Kv1.3 currents): 17.1 ± 3.3 µM | V1/2 of Kv1.3 activation (Kv1.3 (hKV1.3); toxin condition, 5 μM (Figure 3B), normalized peak Itail, control 17.3 ± 0.6 mV, n ≥ 3, mean ± standard error): 17.6 ± 0.7 mV | activity on Nav1.4 (Nav1.4 (rNaV1.4)): inactive

Source: article PMC5086648, “Structural and Functional Elucidation of Peptide Ts11 Shows Evidence of a Novel Subfamily of Scorpion Venom Toxins” (Toxins, 2016)
